Source: patent US8268821B2, “Methods and compositions” (priority 2003, dated 2012)

Test system: cancer-related neuropathic pain
Assay: Open label dose escalation study of flupirtine, case studies JE and RM
Conditions: for WHO PERFORMANCE STATUS: 0=fully active, 4=completely disabled; for WHO PERFORMANCE STATUS / SCORE SLEEP / SCORE POOR CONCENTRATION: day 1 baseline 3; for neuropathic dwascriminant function score: >0 = neuropathic, day 1 baseline 2.448; for freezing pain score / score for increased pain due to touch / score for increased pain due to weather changes / squeezing pain score: day 1 baseline 0; for burning pain score: day 1 baseline 90; for electric pain score / for shooting pain score / numbness score / score for overly sensitive to touch / tingling pain score / unpleasant pain score: day 1 baseline 95; for overwhelming pain score: day 1 baseline 98; for SCORE MOOD / SCORE RELATIONSHIPS / SCORE SLEEP / SCORE GENERAL ACTIVITY / SCORE WALKING / SCORE ENJOYMENT / SCORE TOTAL ACTIVITY: pain interference 1-10; for SCORE MOOD / SCORE RELATIONSHIPS / SCORE CONSTIPATION / SCORE INDIGESTION / LEAST PAIN LAST 24 HRS / PAIN SCORE RIGHT NOW: day 1 baseline 1; for SCORE GENERAL ACTIVITY: day 1 baseline 5; for SCORE WALKING: day 1 baseline 7; for SCORE ENJOYMENT / SCORE TOTAL ACTIVITY / AVERAGE PAIN LAST 24 HOURS: day 1 baseline 8; for SCORE CONSTIPATION / SCORE INDIGESTION / SCORE NAUSEA / SCORE UN[…] GAIT / SCORE POOR CONCENTRATION / SCORE DROWSINESS / SCORE POOR APPETITE: scale 1-4; for SCORE NAUSEA / SCORE UN[…] GAIT: day 1 baseline 2; for SCORE DROWSINESS / SCORE POOR APPETITE: day 1 baseline 4; for LEAST PAIN LAST 24 HRS / PAIN SCORE RIGHT NOW / AVERAGE PAIN LAST 24 HOURS / WORST PAIN SCORE LAST 24 HOURS: scale to 10; for WORST PAIN SCORE LAST 24 HOURS: day 1 baseline 10
[1] = JE day 2, flupirtine 100 mg qid
[2] = JE day 3, flupirtine 100 mg qid
[3] = JE day 4, flupirtine 200 mg qid
[4] = JE day 5, flupirtine 100 mg qid

**Q.** Which results are given for CCOC(=O)Nc1ccc(NCc2ccc(F)cc2)nc1N [flupirtine]?
**A.** WHO PERFORMANCE STATUS [1]: 3; neuropathic dwascriminant function score [1]: −1.238; freezing pain score [1]: 0; score for increased pain due to touch [1]: 0; score for increased pain due to weather changes [1]: 0; squeezing pain score [1]: 0; burning pain score [1]: 20; electric pain score [1]: 0; for shooting pain score [1]: 10; numbness score [1]: 0; score for overly sensitive to touch [1]: 0; tingling pain score [1]: 0; unpleasant pain score [1]: 0; overwhelming pain score [1]: 0; SCORE MOOD [1]: 1; SCORE RELATIONSHIPS [1]: 1; SCORE SLEEP [1]: 1; SCORE GENERAL ACTIVITY [1]: 1; SCORE WALKING [1]: 1; SCORE ENJOYMENT [1]: 1; SCORE TOTAL ACTIVITY [1]: 1; SCORE CONSTIPATION [1]: 3; SCORE INDIGESTION [1]: 1; SCORE NAUSEA [1]: 1; SCORE UN[…] GAIT [1]: 1; SCORE POOR CONCENTRATION [1]: 1; SCORE DROWSINESS [1]: 4; SCORE POOR APPETITE [1]: 1; LEAST PAIN LAST 24 HRS [1]: 0; PAIN SCORE RIGHT NOW [1]: 0; AVERAGE PAIN LAST 24 HOURS [1]: 2; WORST PAIN SCORE LAST 24 HOURS [1]: 2; WHO PERFORMANCE STATUS [2]: 2; neuropathic dwascriminant function score [2]: −1.408; freezing pain score [2]: 0; score for increased pain due to touch [2]: 0; score for increased pain due to weather changes [2]: 0; squeezing pain score [2]: 0; burning pain score [2]: 0; electric pain score [2]: 0; for shooting pain score [2]: 0; numbness score [2]: 0; score for overly sensitive to touch [2]: 0; tingling pain score [2]: 0; unpleasant pain score [2]: 0; overwhelming pain score [2]: 0; SCORE MOOD [2]: 1; SCORE RELATIONSHIPS [2]: 1; SCORE SLEEP [2]: 1; SCORE GENERAL ACTIVITY [2]: 1; SCORE WALKING [2]: 1; SCORE ENJOYMENT [2]: 1; SCORE TOTAL ACTIVITY [2]: 1; SCORE CONSTIPATION [2]: 1; SCORE INDIGESTION [2]: 1; SCORE NAUSEA [2]: 1; SCORE UN[…] GAIT [2]: 1; SCORE POOR CONCENTRATION [2]: 1; SCORE DROWSINESS [2]: 3; SCORE POOR APPETITE [2]: 1; LEAST PAIN LAST 24 HRS [2]: 0; PAIN SCORE RIGHT NOW [2]: 0; AVERAGE PAIN LAST 24 HOURS [2]: 0; WORST PAIN SCORE LAST 24 HOURS [2]: 0; WHO PERFORMANCE STATUS [3]: 3; neuropathic dwascriminant function score [3]: −1.408; freezing pain score [3]: 0; score for increased pain due to touch [3]: 0; score for increased pain due to weather changes [3]: 0; squeezing pain score [3]: 0; burning pain score [3]: 0; electric pain score [3]: 0; for shooting pain score [3]: 0; numbness score [3]: 0; score for overly sensitive to touch [3]: 0; tingling pain score [3]: 0; unpleasant pain score [3]: 0; overwhelming pain score [3]: 0; SCORE MOOD [3]: 1; SCORE RELATIONSHIPS [3]: 1; SCORE SLEEP [3]: 1; SCORE WALKING [3]: 1; SCORE ENJOYMENT [3]: 1; SCORE TOTAL ACTIVITY [3]: 1; SCORE CONSTIPATION [3]: 3; SCORE INDIGESTION [3]: 1; SCORE NAUSEA [3]: 1; SCORE UN[…] GAIT [3]: 4; SCORE POOR CONCENTRATION [3]: 2; SCORE DROWSINESS [3]: 4; SCORE POOR APPETITE [3]: 1; LEAST PAIN LAST 24 HRS [3]: 0; PAIN SCORE RIGHT NOW [3]: 0; AVERAGE PAIN LAST 24 HOURS [3]: 0; WORST PAIN SCORE LAST 24 HOURS [3]: 0; WHO PERFORMANCE STATUS [4]: 4; neuropathic dwascriminant function score [4]: −1.408; freezing pain score [4]: 0; score for increased pain due to touch [4]: 0; score for increased pain due to weather changes [4]: 0; squeezing pain score [4]: 0; burning pain score [4]: 0; electric pain score [4]: 0; for shooting pain score [4]: 0; numbness score [4]: 0; score for overly sensitive to touch [4]: 0; tingling pain score [4]: 0; unpleasant pain score [4]: 0; overwhelming pain score [4]: 0; SCORE MOOD [4]: 1; SCORE RELATIONSHIPS [4]: 1; SCORE SLEEP [4]: 1; SCORE GENERAL ACTIVITY [4]: 1
